≈ marks a conversion by molar mass, not a printed value. Read-outs that look alike come from different tables or passages of the source.
Columns and labels:
Staphylococcus aureus = assay: Minimum inhibitory concentration, serial dilution method on nutrient agar; assay type: cell-based; settings: 37° C., 18 hours, read-out: Minimum Inhibitory Concentrations
[1] = system: Staphylococcus aureus FDA 209P; assay: as above; assay type: cell-based; settings: FDA209P, 37° C., 18 hours, read-out: Minimum Inhibitory Concentrations
[2] = system: Staphylococcus aureus Terajima; assay: as above; assay type: cell-based; settings: 37° C., 18 hours, read-out: Minimum Inhibitory Concentrations
Sarcina lutea PCI 1001 = assay: as above; assay type: cell-based; settings: Micrococcus luteus, PCI1001, 18 h, read-out: Minimum Inhibitory Concentrations
Bacillus anthracis = assay: microbe, parasite or virus in culture; assay type: cell-based; settings: 18 h, read-out: Minimum Inhibitory Concentrations
[3] = system: Bacillus subtilis PCI 219; assay: Minimum inhibitory concentration, serial dilution method on nutrient agar; assay type: cell-based; settings: PCI219, 37° C., 18 hours, read-out: Minimum Inhibitory Concentrations
[4] = system: Bacillus subtilis NRRL B-558; assay: as above; assay type: cell-based; settings: NRRLB558, 37° C., 18 hours, read-out: Minimum Inhibitory Concentrations
[5] = system: Bacillus cereus ATCC 10702; assay: as above; assay type: cell-based; settings: Bacillus cereus, ATCC10702, 18 h, read-out: Minimum Inhibitory Concentrations
[6] = system: Corynebacterium bovis 1810; assay: as above; assay type: cell-based; settings: Corynebacterium bovis, 1810, 18 h, read-out: Minimum Inhibitory Concentrations
[7] = system: Mycobacterium smegmatis ATCC 607; assay: as above; assay type: cell-based; settings: Mycolicibacterium smegmatis, ATCC607, 37° C., 18 hours, read-out: Minimum Inhibitory Concentrations
[8] = system: Shigella dysenteriae JS 11910; assay: as above; assay type: cell-based; settings: JS11910, 18 h, read-out: Minimum Inhibitory Concentrations
Salmonella typhosa T-63 = assay: as above; assay type: cell-based; settings: Salmonella enterica, 18 h, read-out: Minimum Inhibitory Concentrations
[9] = system: Salmonella enteritidis 1891; assay: as above; assay type: cell-based; settings: Salmonella enterica, read-out: Minimum Inhibitory Concentrations
Proteus vulgaris OX 19 = assay: as above; assay type: cell-based; settings: read-out: Minimum Inhibitory Concentrations
[10] = system: Klebsiella pneumoniae PCT 602; assay: as above; assay type: cell-based; settings: read-out: Minimum Inhibitory Concentrations
Escherichia coli NIHJ = assay: as above; assay type: cell-based; settings: read-out: Minimum Inhibitory Concentrations
Escherichia coli K-12 = assay: as above; assay type: cell-based; settings: read-out: Minimum Inhibitory Concentrations
Escherichia coli K-12 R5 = assay: as above; assay type: cell-based; settings: K12R5, 18 h, read-out: Minimum Inhibitory Concentrations
[11] = system: Escherichia coli K-12 ML 1629; assay: as above; assay type: cell-based; settings: read-out: Minimum Inhibitory Concentrations
[12] = system: Escherichia coli K-12 ML 1410; assay: as above; assay type: cell-based; settings: read-out: Minimum Inhibitory Concentrations
[13] = system: Escherichia coli K-12 ML 1410 R81; assay: as above; assay type: cell-based; settings: 18 h, read-out: Minimum Inhibitory Concentrations
[14] = system: Escherichia coli LA290 R55; assay: as above; assay type: cell-based; settings: LA290R55, 18 h, read-out: Minimum Inhibitory Concentrations
[15] = system: Escherichia coli LA290 R56; assay: as above; assay type: cell-based; settings: LA290R56, 18 h, read-out: Minimum Inhibitory Concentrations
[16] = system: Escherichia coli LA290 R64; assay: as above; assay type: cell-based; settings: LA290R64, 18 h, read-out: Minimum Inhibitory Concentrations
Escherichia coli W677 = assay: as above; assay type: cell-based; settings: read-out: Minimum Inhibitory Concentrations
[17] = system: Escherichia coli JR66/W677; assay: as above; assay type: cell-based; settings: Escherichia coli, JR66/W677, 18 h, read-out: Minimum Inhibitory Concentrations
[18] = system: Escherichia coli K-12 ML 1630; assay: as above; assay type: cell-based; settings: K12ML1630, 37° C., 18 hours, read-out: Minimum Inhibitory Concentrations
Method: (§1) The minimum inhibitory concentrations (mcg./ml.) of 1N-(DL-isoseryl)-6'N-methyl-3',4'-dideoxykanamycin B (abbreviated as DL-IS-MDKB); 1N-(L-isoseryl)-6'N-methyl-3',4'-dideoxykanamycin B (abbreviated as L-IS-MDKB); 1N-(L-4-amino-[…])-6'N-methyl-3',4'-dideoxykanamycin B (abbreviated as AHB-MDKB); and 1N-(L-5-amino-2-hydroxyvaleryl)-6'N-methyl-3',4'-dideoxykanamycin B (abbreviated as AHV-MDBK) against various organisms were determined according to serial dilution method using nutrient agar medium at 37° C., the readings being made after 18 hours incubation. For the comparison purpose, the minimum inhibitory concentrations (mcg./ml.) of 1 N-(L-4-amino-2-hydroxybutyryl)-kanamycin A (abbreviated as AHB-KMA) and 1N-([…])-kanamycin B (abbreviated as AHB-KMB) which are known from U.S. Pat. No. 3,781,268 were also determined by the same manner as stated above.

[19] = system: Klebsiella pneumoniae 22 No. 3038; assay: as above; assay type: cell-based; settings: 37° C., 18 hours, read-out: Minimum Inhibitory Concentrations
Method: as §1

[20] = system: Pseudomonas aeruginosa A3; assay: as above; assay type: cell-based; settings: 37° C., 18 hours, read-out: Minimum Inhibitory Concentrations
Method: as §1

[21] = system: Shigella flexneri 4b JS 11811; assay: as above; assay type: cell-based; settings: 4BJS11811, 37° C., 18 hours, read-out: Minimum Inhibitory Concentrations
Method: as §1

Shigella sonnei JS 11746 = assay: as above; assay type: cell-based; settings: JS11746, 37° C., 18 hours, read-out: Minimum Inhibitory Concentrations
Method: as §1

[22] = system: Pseudomonas aeruginosa No. 12; assay: as above; assay type: cell-based; settings: Pseudomonas aeruginosa, NO.12, 18 h, read-out: Minimum Inhibitory Concentrations
[23] = system: Pseudomonas aeruginosa TI-13; assay: as above; assay type: cell-based; settings: read-out: Minimum Inhibitory Concentrations
[24] = system: Pseudomonas aeruginosa GN315; assay: as above; assay type: cell-based; settings: read-out: Minimum Inhibitory Concentrations
[25] = system: Pseudomonas aeruginosa 99; assay: as above; assay type: cell-based; settings: 37° C., 18 hours, read-out: Minimum Inhibitory Concentrations
[26] = system: kanamycin-resistant bacteria; settings: prior art statement; cited from earlier work

| SMILES | MIC (Staphylococcus aureus) [µg/mL] | MIC [1] [µg/mL] | MIC [2] [µg/mL] | MIC (Sarcina lutea PCI 1001) [µg/mL] | MIC (Bacillus anthracis) [µg/mL] | MIC [3] [µg/mL] | MIC [4] [µg/mL] | MIC [5] [µg/mL] | MIC [6] [µg/mL] | MIC [7] [µg/mL] | MIC [8] [µg/mL] | MIC (Salmonella typhosa T-63) [µg/mL] | MIC (Escherichia coli K-12 R5) [µg/mL] | MIC [14] [µg/mL] | MIC [15] [µg/mL] | MIC [16] [µg/mL] | MIC [17] [µg/mL] | MIC [18] [µg/mL] | MIC [19] [µg/mL] | activity against kanamycin-resistant bacteria [26] | other results |
| --- | --- | --- | --- | --- | --- | --- | --- | --- | --- | --- | --- | --- | --- | --- | --- | --- | --- | --- | --- | --- | --- |
| CNC[C@@H]1CC[C@@H](N)[C@@H](O[C@H]2[C@H](O)[C@@H](O[C@H]3O[C@H](CO)[C@@H](O)[C@H](N)[C@H]3O)[C@H](NC(=O)C(O)CN)C[C@@H]2N)O1 (mixture of isomers) [DL-IS-MDKB, 1N-(DL-isoseryl)-6'N-methyl-3',4'-dideoxykanamycin B] | < 0.2 | 0.78 | < 0.2 | 6.25 | < 0.2 | < 0.2 | < 0.2 | 3.13 | 3.13 | 0.39 | 6.25 | 1.56 | 3.13 | 3.13 | 0.78 | 0.78 | 3.13 | 3.13 | 3.13 |  | MIC ([9]; ENTERITIDIS, 18 h): 3.13 µg/mL; MIC (Proteus vulgaris OX 19; Proteus vulgaris, OX19, 18 h): 1.56 µg/mL; MIC ([10]; Klebsiella pneumoniae, PCT602, 18 h): 1.56 µg/mL; MIC (Escherichia coli NIHJ; Escherichia coli, 18 h): 1.56 µg/mL; MIC (Escherichia coli K-12; Escherichia coli, K12, 18 h): 1.56 µg/mL; MIC ([11]; Escherichia coli, K12ML1629, 18 h): 1.56 µg/mL; MIC ([12]; Escherichia coli, K12ML1410, 18 h): 3.13 µg/mL; MIC [13]: 3.13 µg/mL; MIC (Escherichia coli W677; Escherichia coli, W677, 18 h): 1.56 µg/mL; MIC [20]: 3.13 µg/mL; MIC [21]: 3.13 µg/mL; MIC (Shigella sonnei JS 11746): 3.13 µg/mL; MIC [22]: 6.25 µg/mL; MIC ([23]; TI13, Pseudomonas aeruginosa TI-13, 37° C., 18 hours): 12.5 µg/mL; MIC ([24]; Pseudomonas aeruginosa GN315, 37° C., 18 hours): 12.5 µg/mL; MIC [25]: 25 µg/mL |
| NC[C@@H]1CC[C@@H](N)[C@@H](O[C@H]2[C@H](O)[C@@H](O[C@H]3O[C@H](CO)[C@@H](O)[C@H](N)[C@H]3O)[C@H](N)C[C@@H]2N)O1 [3',4'-dideoxykanamycin B, 3',4'-Dideoxykanamycin B] |  |  |  |  |  |  |  |  |  |  |  |  |  |  |  |  |  |  |  | active against a large number of kanamycin-resistant bacteria |  |
| CNC[C@@H]1CC[C@@H](N)[C@@H](O[C@H]2[C@H](O)[C@@H](O[C@H]3O[C@H](CO)[C@@H](O)[C@H](N)[C@H]3O)[C@H](N)C[C@@H]2N)O1 [6'N-methyl-3',4'-dideoxykanamycin B, 6'N-Methyl-3',4'-dideoxykanamycin B] |  |  |  |  |  |  |  |  |  |  |  |  |  |  |  |  |  |  |  | active against a large number of kanamycin-resistant bacteria |  |
| NCC[C@H](O)C(=O)N[C@@H]1C[C@H](N)[C@@H](O[C@H]2O[C@H](CN)[C@@H](O)[C@H](O)[C@H]2N)[C@H](O)[C@H]1O[C@H]1O[C@H](CO)[C@@H](O)[C@H](N)[C@H]1O [AHB-KMB, 1N-(L-4-amino-2-hydroxybutyryl)kanamycin B] |  |  |  |  |  |  |  |  |  |  |  |  |  |  |  |  |  |  |  | active against a large number of kanamycin-resistant bacteria |  |
| CNC[C@@H]1CC[C@@H](N)[C@@H](O[C@H]2[C@H](O)[C@@H](O[C@H]3O[C@H](CO)[C@@H](O)[C@H](N)[C@H]3O)[C@H](NC(=O)[C@@H](O)CCN)C[C@@H]2N)O1 [AHB-MDKB, 1N-(L-4-amino-2-hydroxybutyryl)-6'N-methyl-3',4'-dideoxykanamycin B] | < 0.2 | 0.78 (≈ 1.38 µM) | < 0.2 | 3.13 (≈ 5.52 µM) | < 0.2 | < 0.2 | < 0.2 | 3.13 (≈ 5.52 µM) | 3.13 (≈ 5.52 µM) | 0.2 (≈ 0.353 µM) | 3.13 (≈ 5.52 µM) | 3.13 (≈ 5.52 µM) | 1.56 (≈ 2.75 µM) | 0.78 (≈ 1.38 µM) | 0.78 (≈ 1.38 µM) | 0.78 (≈ 1.38 µM) | 3.13 (≈ 5.52 µM) | 0.78 (≈ 1.38 µM) | 3.13 (≈ 5.52 µM) |  | MIC ([9]; Salmonella enteritidis 1891, 37° C., 18 hours): 1.56 µg/mL (≈ 2.75 µM); MIC (Proteus vulgaris OX 19; OX19, Proteus vulgaris OX 19, 37° C., 18 hours): 1.56 µg/mL (≈ 2.75 µM); MIC ([10]; PCT602, Klebsiella pneumoniae PCT 602, 37° C., 18 hours): 0.78 µg/mL (≈ 1.38 µM); MIC (Escherichia coli NIHJ; Escherichia coli NIHJ, 37° C., 18 hours): 1.56 µg/mL (≈ 2.75 µM); MIC (Escherichia coli K-12; K12, Escherichia coli K-12, 37° C., 18 hours): 0.78 µg/mL (≈ 1.38 µM); MIC ([11]; K12ML1629, Escherichia coli K-12 ML 1629, 37° C., 18 hours): 1.56 µg/mL (≈ 2.75 µM); MIC ([12]; K12ML1410, Escherichia coli K-12 ML 1410, 37° C., 18 hours): 1.56 µg/mL (≈ 2.75 µM); MIC (Escherichia coli W677; Escherichia coli W677, 37° C., 18 hours): 0.78 µg/mL (≈ 1.38 µM); MIC [20]: 3.13 µg/mL (≈ 5.52 µM); MIC [21]: 3.13 µg/mL (≈ 5.52 µM); MIC (Shigella sonnei JS 11746): 6.25 µg/mL (≈ 11 µM); MIC [22]: 3.13 µg/mL (≈ 5.52 µM); MIC ([23]; Pseudomonas aeruginosa, TI13, 18 h): 6.25 µg/mL (≈ 11 µM); MIC ([24]; Pseudomonas aeruginosa, GN315, 18 h): 6.25 µg/mL (≈ 11 µM); MIC [25]: 25 µg/mL (≈ 44.1 µM) |

Reference: patent US4147861A, “1N-(α-Hydroxy-ω-aminoalkanoyl)- 6'N-methyl-3',4'-dideoxykanamycin B and the production thereof” (Zaidan Hojin Biseibutsu Kagaku Kenkyu Kai, priority 1977, dated 1979)
